According to patent publication US7659299B2, “Compounds inhibiting the binding of sap for treating osteoarthritis” (Pentraxin Therapeutics Limited, priority 2003, dated 2010):

Key:
Design in all cases: 5 μl of radiolabelled SAP in TN; from tissue
SAP [1] = molecular target: T1, SAP (Homo sapiens, UniProt P02743); assay: Inhibition of binding of 125I radiolabelled SAP to influenza virus immobilized in microtitre plates; settings: read-out: Percent inhibition of binding of radiolabelled SAP to immobilized influenza virus
SAP [2] = molecular target: T1, SAP; assay: Inhibition of binding of 125I radiolabelled SAP to Neisseria meningitidis immobilized in microtitre plates; settings: read-out: Percent inhibition of binding of radiolabelled SAP to immobilized Neisseria meningitidis
SAP [3] = molecular target: T1, SAP; assay: Treatment of patients with osteoarthritis: plasma SAP concentration and joint symptoms; format: in vivo; settings: patient
Source text: 1) The patient, a person retired General Practitioner living in New Zealand, has a long history of bone and joint injuries, starting as a child on a farm and continuing as a teenager and then adult playing rugby and skiing. They have suffered from pain and swelling of previously damaged joints following manual work and especially in cold weather. The proximal interphalangeal joints of the left middle and right fourth fingers, the right elbow and the mid-thoracic intervertebral joints have been most affected. Symptoms and signs have progressively worsened over the past 22 years, so that their capacity for physical work had become very restricted and during winter they have required frequent or continuous treatment with non-steroidal anti-inflammatory drugs. These are all typical manifestations of osteoarthritis. In 2000 the discovery of impaired renal function led eventually to a second, and completely separate diagnosis of hereditary systemic amyloidosis caused by a mutation in the gene for fibrinogen A α-chain.
They started experimental treatment for their amyloidosis on 9 Oct. 2001 with (R)-1-[6-[(R)-2-Carboxy-pyrrolidin-1-yl]-6-oxo-hexanoyl]pyrrolidine-2-carboxylic acid, 10 mg b.d. by subcutaneous injection. […] This improvement was sustained and increased so that by April 2002, the autumn in New Zealand, it was impressively beyond doubt. Throughout that winter, for the first time in many years, […] no longer required treatment with non-steroidal anti-inflammatory drugs, despite increased physical activity. […] Over the past few months they have been doing regular hard physical work on the land, fencing and landscaping, including lifting and carrying significant weights, without suffering any of the pain and swelling that previously severely affected them even without the stress of unusual physical activity.
Their shoulders were painful, particularly when reaching up or behind their head, making drying their hair and some household tasks painful and difficult. […] They also experienced pain in their right wrist when performing some tasks, particularly opening jars, a manoeuvre that they found difficult. These symptoms are all compatible with osteoarthritis.
CD has hereditary systemic amyloidosis caused by a mutation in the gene for apolipoprotein AI, diagnosed in October 2001 during investigation of chronic renal impairment. […] They started experimental treatment for their amyloidosis on 22 Oct. 2001 with (R)-1-[6-[(R)-2-Carboxy-pyrrolidin-1-yl]-6-oxo-hexanoyl]pyrrolidine-2-carboxylic acid, 15 mg b.d. by subcutaneous injection. […] Treatment with (R)-1-[6-[(R)-2-Carboxy-pyrrolidin-1-yl]-6-oxo-hexanoyl]pyrrolidine-2-carboxylic acid finished in October 2002 and their remarkable remission has continued to the present (June 2003).

SAP [4] = molecular target: T1, SAP; assay: Inhibition of binding of 125I radiolabelled SAP to native long chromatin immobilized in microtitre plates; settings: read-out: Percent inhibition of binding of radiolabelled SAP to immobilized native long chromatin

T1 sequence (P02743 20-223): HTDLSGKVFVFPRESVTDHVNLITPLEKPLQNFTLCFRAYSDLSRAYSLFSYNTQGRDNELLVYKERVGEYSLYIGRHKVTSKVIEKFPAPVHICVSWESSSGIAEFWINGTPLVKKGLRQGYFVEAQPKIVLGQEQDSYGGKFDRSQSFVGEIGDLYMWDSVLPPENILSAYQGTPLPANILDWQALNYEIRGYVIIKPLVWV

In the case of `O=C(O)[C@H]1CCCN1C(=O)CCCCC(=O)N1CCC[C@@H]1C(=O)O` [Ro-63-8695, (R)-1-[6-[(R)-2-Carboxy-pyrrolidin-1-yl]-6-oxo-hexanoyl]pyrrolidine-2-carboxylic acid], the inhibition at 0.2 µM (SAP [1]; compound 200 nM) is reported as 36%, the inhibition at 2 µM (SAP [1]; compound 2 μM) is reported as 81% and the inhibition at 20 µM (SAP [1]; compound 20 μM) is reported as 90%. It also gave an inhibition at 200 µM (SAP [1]; compound 200 μM) of 96%, an inhibition at 2000 µM (SAP [1]; compound 2 mM) of 98% and an inhibition at 0.2 µM (SAP [2]; compound 200 nM) of 5%. It also gave an inhibition at 2 µM (SAP [2]; compound 2 μM) of 61%, an inhibition at 20 µM (SAP [2]; compound 20 μM) of 74% and an inhibition at 200 µM (SAP [2]; compound 200 μM) of 79%. The inhibition at 2000 µM (SAP [2]; compound 2 mM) was 100%, the “plasma SAP concentration reduced by” value (SAP [3]; 10 mg b.d. subcutaneous injection, after three months) was “over 95%” and the symptoms of osteoarthritis (SAP [3]; 10 mg b.d. subcutaneous injection, treatment Oct. 2001 to June 2003) was “remained in remission”. For the same compound, the “plasma SAP concentration reduced by” value (SAP [3]; 15 mg b.d. subcutaneous injection, after two months) was “over 95%”, the “joint pain and function” value (SAP [3]; 15 mg b.d. subcutaneous injection, by January 2002 (start 22 Oct. 2001)) was “free of pain and had normal function of their joints” and the inhibition at 0.2 µM (SAP [4]; compound 200 nM) was 1%. For the same compound, the inhibition at 2 µM (SAP [4]; compound 2 μM) was 29%, the inhibition at 20 µM (SAP [4]; compound 20 μM) was 69% and the inhibition at 200 µM (SAP [4]; compound 200 μM) was 87%. For the same compound, the inhibition at 2000 µM (SAP [4]; compound 2 mM) was 93%.
